Laboratory results taken from patent US8389680B2, “Treatment of Aspergillus infections with alpha thymosin peptides” (SciClone Pharmaceuticals, Inc., priority 2003, dated 2013).
“Also recorded” adds a separate entry of the source.

Legend:
human TLR2 = target: T1, human TLR2 (Homo sapiens, UniProt O60603); experiment: IL-8 production by TLR2-transfected HEK293 cells; format: cell-based
T1 construct: expressed in transfected cells; host or cells: HEK293
Procedure: The human embryonic kidney cell line HEK293, wild type or stably transfected with human TLR2, TLR9 and TLR4/CD1427 were cultured in low glucose Dulbecco's modified Eagle's medium supplemented with 10% FCS, HEPES ([…]), L-glutamine ([…]), and gentamycin (50 microgram/ml). Transfectants were additionally supplemented with puromycin (100 microgram/ml). For stimulation experiments, cells were cultured at a density of 3 to 5×10^5 cells/wells in 12-well tissue culture plates overnight. Cells were washed and stimulated with 100 ng/ml TA1 either alone or together with TLR ligands for 5 h before the assessment of IL-8 production in the supernatants.
The levels of TNF-alpha, IL-10, IL-12 p70, IFN-alpha and IL-8 in culture supernatants were determined by Kit ELISAs. The detection limits (pg/ml) of the assays were <3 (human) and <32 (murine) for TNF-alpha, <12 (murine) and <5 (human) for IL-10, <16 (murine) and <3 (human) for IL-12 p70 and <25 (human) IL-8. For human IFN-alpha <3 ng/ml. For enumeration of cytokine-producing cells, an ELISPOT assay was used on purified CD4^+ T cells and DCs from lungs.

p38 and NF-kB = experiment: Analysis of p38 and NF-kB activation on lung DCs; format: cell-based, murine; conditions: peptide alone, 20 minutes
Procedure: P38 and NF-kB were activated on lung DCs by exposure for 20 minutes at 37° C. to Aspergillus conidia and/or 100 ng/ml TA1. Blots of cell lysates were incubated with rabbit polyclonal Abs recognizing either the unphosphorylated form of p38 MAPK, or the double-phosphorylated (Thr-180/Tyr-182) p38 MAPK, or Abs specific for the Rel A, 65 kDa DNA binding subunit of human NF-kB followed by horseradish peroxidase-conjugated goat anti-rabbit IgG, as per manufacturer's instructions. Blots were developed with an Enhanced Chemiluminescence detection kit. Bands were visualized after exposure of the blots to a Kodak RX film. To ensure similar protein loading in each lane, the phospho blots were stripped and the membranes were reprobed with Abs against p38 and NF-kB.

A. fumigatus [1] = experiment: Local fungal growth after Aspergillus infection of TLR2-, TLR9- or MyD88-deficient mice; format: in vivo
Text: (§1) Female, 8- to 10-weeks old, BALB/c and C57BL6 mice were from Charles River. NOD/SCID were from The Jackson. Breeding pairs of homozygous TLR2-, TLR9- and MyD88-deficient mice, raised on C57BL6 background, and of homozygous IFN-gamma- and IL-4-deficient mice, raised on BALB/c background, were bred under specific-pathogen free conditions.
(§2) For infection with A. fumigatus, mice were intranasally injected for 3 consecutive days with a suspension of 2×10^7 conidia/20 microliter saline. For the quantification of fungal growth in the lungs, the chitin assay was used. The chitin content was expressed as micrograms of glucosamine per organ. The glucosamine content of lungs from uninfected mice was used as a negative control ranging between 0.80 and 2.25 microgram glucosamine/organ. For histological analysis, lungs were excised and immediately fixed in formalin. Sections (3 to 4 micron) of paraffin-embedded tissues were stained with the periodic acid-Schiff procedure. Thymosin alpha 1 (TA1) and the scrambled polypeptide are as purified sterile lyophilized acetylated polypeptides with endotoxin levels less than 0.03 pg/ml, by a standard limulus lysate assay. The sequences were as follows: Ac-[…]O (Thymosin alpha 1, SEQ ID NO.: 1) and Ac-[…]OH ([…]). Their lyophilized powders were reconstituted in sterile water.
(§3) The treatments were as follows; in BMT-mice, TA1, at different doses administered intraperitoneally, sthymosin alpha 1, 400 microgram/kg administered intraperitoneally or human recombinant G-CSF 250 microgram/kg administered intravenously, were given daily beginning the day of the BM infusion, in concomitance with the infection and continuing for an additional 3 days. Amphotericin B was given daily for 3 days in concomitance with the infection, at a dose of 4000 microgram/kg, administered intraperitoneally. This dose would cure IA in cyclophosphamide-treated mice. Cyclophosphamide, 150 mg/kg administered intraperitoneally, was given a day before the infection. […]

[2] = test system: lymphocytes and neutrophils; experiment: Myeloid and Th1 cell recovery in BMT mice with IA; format: in vivo
Text: The treatments were as follows; in BMT-mice, TA1, at different doses administered intraperitoneally, sthymosin alpha 1, 400 microgram/kg administered intraperitoneally or human recombinant G-CSF 250 microgram/kg administered intravenously, were given daily beginning the day of the BM infusion, in concomitance with the infection and continuing for an additional 3 days. Amphotericin B was given daily for 3 days in concomitance with the infection, at a dose of 4000 microgram/kg, administered intraperitoneally. This dose would cure IA in cyclophosphamide-treated mice. Cyclophosphamide, 150 mg/kg administered intraperitoneally, was given a day before the infection. In cyclophosphamide-treated mice, 400 microgram/kg TA1 was given intraperitoneally for 5 consecutive days beginning the day of the infection. Cell surface phenotype was assessed by reacting samples with FITC- or PE-conjugated rat anti-mouse antibodies. Unrelated hisotype matched antibodies were used as control. The levels of TNF-alpha, IL-10, IL-12 p70, IFN-alpha and IL-8 in culture supernatants were determined by Kit ELISAs. The detection limits (pg/ml) of the assays were <3 (human) and <32 (murine) for TNF-alpha, <12 (murine) and <5 (human) for IL-10, <16 (murine) and <3 (human) for IL-12 p70 and <25 (human) IL-8. For human IFN-alpha <3 ng/ml. For enumeration of cytokine-producing cells, an ELISPOT assay was used on purified CD4^+ T cells and DCs from lungs. Proliferation of lung CD4^+ T lymphocytes stimulated with 10 microgram/ml Con A or heat inactivated conidia in the presence of lung DCs, was assessed by labeling with CFSE 5(6)-carboxyfluorescein diacetate succinimidyl ester.

Aspergillus conidia = experiment: Antifungal effector activity (conidiocidal activity) of macrophages and neutrophils; format: cell-based; conditions: TA1 treated mice
Procedure: […] In addition, the conidiocidal activity was assessed by determining the number of colony forming units and the percentage of colony forming units inhibition (mean±SE), referred to as conidiocidal activity.

A. fumigatus [3] = experiment: Therapeutic efficacy of TA1 in T cell-, IFN-gamma- or IL-4-deficient mice with aspergillosis; format: in vivo
Text: as §1, §2, §3

[4] = BMT mice, cytofluorimetric analysis

T1 sequence (O60603 21-784): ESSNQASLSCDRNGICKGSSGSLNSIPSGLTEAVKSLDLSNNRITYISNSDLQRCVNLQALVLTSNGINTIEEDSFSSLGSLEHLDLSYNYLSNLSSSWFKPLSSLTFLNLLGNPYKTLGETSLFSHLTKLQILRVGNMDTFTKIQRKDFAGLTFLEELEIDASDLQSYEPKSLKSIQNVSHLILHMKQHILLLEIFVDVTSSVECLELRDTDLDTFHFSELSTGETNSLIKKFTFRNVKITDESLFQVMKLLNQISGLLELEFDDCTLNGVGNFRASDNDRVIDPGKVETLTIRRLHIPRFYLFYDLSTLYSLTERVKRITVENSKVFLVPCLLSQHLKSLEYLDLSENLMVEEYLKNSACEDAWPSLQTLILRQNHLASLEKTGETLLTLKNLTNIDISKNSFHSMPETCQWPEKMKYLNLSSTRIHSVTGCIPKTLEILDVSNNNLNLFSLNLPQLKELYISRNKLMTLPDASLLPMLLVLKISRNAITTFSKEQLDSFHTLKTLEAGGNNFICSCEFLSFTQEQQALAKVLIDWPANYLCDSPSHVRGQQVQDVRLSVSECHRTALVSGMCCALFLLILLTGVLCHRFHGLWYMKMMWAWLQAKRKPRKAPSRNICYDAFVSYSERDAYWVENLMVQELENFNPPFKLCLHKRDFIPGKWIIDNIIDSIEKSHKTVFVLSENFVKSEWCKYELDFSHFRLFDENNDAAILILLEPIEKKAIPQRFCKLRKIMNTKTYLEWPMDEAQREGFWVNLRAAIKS

For “Ac-Ser-Asp-Ala-Ala-Val-Asp-Thr-Ser-Ser-Glu-Ile-Thr-Thr-Lys-Asp-Leu-Lys-Glu-Lys-Lys-Glu-Val-Glu-Glu-Ala-Glu-Asn-O (Ac-SDAAVDTSSEITTKDLKEKKEVEEAEN-OH) [TA1, naturally occurring thymic peptide]”, the “production of IL-8” value (human TLR2; TA1 alone) was “did not stimulate”, the “production of IL-8” value (human TLR2; in response to zymosan) was “potentiated; also recorded: slightly increased” and the p38 phosphorylation (p38 and NF-kB) was “induced”. For the same substance, the fungal growth (A. fumigatus [1]; MyD88-deficient mice) was “not impaired”, the fungal growth (A. fumigatus [1]; TLR2-deficient mice) was “similarly impaired” and the fungal growth (A. fumigatus [1]; TLR9-deficient mice) was “similarly impaired”. For the same substance, the “frequency of Th1 cells (producing IFN-gamma)” value ([2]; BMT mice treated with TA1) was “increased; also recorded: higher”, the “frequency of Th2 cells (producing IL-4)” value ([2]; BMT mice treated with TA1) was “decreased; also recorded: lower” and the “function of lung CD4+ T lymphocytes (antigen-specific proliferation and IFN-gamma production)” value ([2]; BMT mice treated with TA1) was “functionally active”. For the same substance, the “number of lung CD4+ cells” value [2, 4] was “increase; also recorded: significantly increased”, the “number of lung CD8+ cells” value [2, 4] was “increase; also recorded: significantly increased” and the “number of lung neutrophils” value [2, 4] was “significantly increased”. The total neutrophils ([2]; BMT mouse model, TA1 treatment after Aspergillus infection) was “increase”, the “absolute number of circulating lymphocytes” value ([2]; after TA1 treatment) was “significantly increases” and the “absolute number of circulating neutrophils” value ([2]; after TA1 treatment) was “significantly increases”. For the same substance, the “conidiocidal activity of macrophages” value (Aspergillus conidia) was “higher”, the “conidiocidal activity of neutrophils” value (Aspergillus conidia) was “higher” and the therapeutic efficacy (A. fumigatus [3]; IL-4-deficient mice (increased Th1 cells)) was “improved therapeutic efficacy”. For the same substance, the therapeutic efficacy (A. fumigatus [3]; mice devoid of IFN-gamma-producing Th1 cells) was “not as great” and the therapeutic efficacy (A. fumigatus [3]; mice devoid of T cells) was “not as great”.
